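Results reflect a 48-hour exposure of cells in 96-well plates to compound at five concentrations. Abbreviation: GI50, concentration required for 50% inhibition of growth. At the TGI there is no net growth.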
Experiments:
Assay in all cases: NCI-60 cell line screen, 48 h
[1] = test system: NCI-H23 lung
[2] = test system: RXF 393 renal
[3] = test system: SK-MEL-2 melanoma
[4] = test system: K-562 leukemia
[5] = test system: U251 CNS
[6] = test system: NCI-H226 lung
[7] = test system: CCRF-CEM leukemia
[8] = test system: UO-31 renal
[9] = test system: MCF7 breast
[10] = test system: HS 578T breast

COc1cc(C(C)c2cc3c(cc2OCCNC(=O)COc2cc4c(cc2C(C)c2cc(OC)c(OC)c(OC)c2)OCO4)OCO3)cc(OC)c1OC (centres undefined)
TGI [1]: > 100 µM
TGI [2]: > 100 µM
TGI [3]: > 100 µM
TGI [4]: > 100 µM
TGI [5]: > 100 µM
TGI [6]: > 100 µM
TGI [7]: > 100 µM
TGI [8]: > 100 µM

O=C1C(=O)c2ccccc2C(O)=C1CCCc1ccc(C2CCCCC2)cc1
GI50 [1]: 4.14 µM
TGI [1]: 61.4 µM
GI50 [2]: 11.5 µM
TGI [2]: 26.8 µM
GI50 [4]: 3.28 µM
TGI [4]: > 100 µM
GI50 [5]: 6.42 µM
TGI [5]: > 100 µM
GI50 [6]: 5.42 µM
TGI [6]: 27.6 µM
GI50 [8]: 5 µM
TGI [8]: 23.2 µM
GI50 [9]: 4.17 µM
TGI [9]: 34.2 µM
GI50 [10]: 8.59 µM
TGI [10]: 56.9 µM

COc1ccc2c(c1)NC1(O)c3ccccc3C(=O)C21O (centres undefined)
TGI [1]: > 100 µM
TGI [4]: > 100 µM
TGI [5]: > 100 µM
TGI [6]: > 100 µM
TGI [7]: > 100 µM
TGI [8]: > 100 µM

N/N=C(\c1nc2ccc(Cl)cc2[nH]c1=O)C(O)c1ccc(Cl)c(Cl)c1 (centres undefined)
TGI [1]: > 100 µM
TGI [2]: > 100 µM
TGI [3]: > 100 µM
TGI [4]: > 100 µM
TGI [5]: > 100 µM
TGI [6]: > 100 µM
TGI [7]: > 100 µM
TGI [8]: > 100 µM

CCCN(CCC)C(=O)c1nc(N)nc(-c2ccc(OC)cc2)c1-c1ccc(OC)cc1
TGI [1]: > 100 µM
TGI [3]: > 100 µM
TGI [4]: > 100 µM
TGI [5]: > 100 µM
TGI [6]: > 100 µM
TGI [7]: > 100 µM
TGI [8]: > 100 µM

CC(C)(C)N/N=C(\C(=O)Nc1nc(=S)[nH][nH]1)C1C(=O)Nc2ccccc2S1=O (centres undefined)
TGI [1]: > 100 µM
TGI [2]: > 100 µM
TGI [3]: > 100 µM
TGI [4]: > 100 µM
TGI [5]: > 100 µM
TGI [6]: > 100 µM
TGI [7]: > 100 µM
TGI [8]: > 100 µM

O=C(Nc1ccccc1-c1nn(CN2CCNCC2)c(=S)n(CN2CCNCC2)c1=O)C(F)(F)F
TGI [1]: 32.6 µM
TGI [2]: 30.3 µM
TGI [3]: 33.5 µM
TGI [4]: 59 µM
TGI [5]: 31.7 µM
TGI [6]: 40.7 µM
TGI [7]: 45.2 µM
TGI [8]: 32.6 µM

COC(=O)C(=O)C(C(=O)C(=O)Nc1ccccc1OC)c1nc2ccc([N+](=O)[O-])cc2[nH]c1=O (centres undefined)
TGI [2]: > 100 µM
TGI [3]: > 100 µM
TGI [4]: > 100 µM
TGI [5]: > 100 µM
TGI [6]: > 100 µM
TGI [7]: > 100 µM
TGI [8]: > 100 µM
TGI [9]: > 100 µM
TGI [10]: > 100 µM

Cc1nc(/C=C2\C(=O)C=Cc3ccccc32)c(O)o1
TGI [1]: > 100 µM
TGI [2]: > 100 µM
TGI [3]: > 100 µM
TGI [4]: > 100 µM
TGI [5]: > 100 µM
TGI [7]: > 100 µM
TGI [8]: > 100 µM

O=C(/C=C1\C(=O)N(Cc2ccccc2)c2ccccc21)c1ccc(OCCN2CCCCC2)cc1
GI50 [1]: 3.47 µM
TGI [1]: 14.5 µM
GI50 [2]: 1.65 µM
TGI [2]: 3.17 µM
GI50 [3]: 11.7 µM
TGI [3]: 24.3 µM
GI50 [4]: 1.84 µM
TGI [4]: 6.53 µM
GI50 [5]: 1.91 µM
TGI [5]: 3.35 µM
GI50 [6]: 16.8 µM
TGI [6]: 39.7 µM
GI50 [7]: 1.83 µM
TGI [7]: 5.9 µM
GI50 [8]: 1.54 µM
TGI [8]: 2.87 µM
GI50 [10]: 3 µM
TGI [10]: 9.91 µM

CC(=O)NC(CSC1=C2NC(=O)\C=C/C=C/C=C\C(C)C(O)CC(=O)/C(C)=C\CC(O)/C=C/C(C)C(O)C(C)C=C(C)C(=O)c3c(O)c(C)cc(c3C1=O)C2=O)C(=O)O (centres undefined)
TGI [1]: > 100 µM
TGI [3]: > 100 µM
TGI [4]: > 100 µM
TGI [5]: > 100 µM
TGI [6]: > 100 µM
TGI [7]: 78.9 µM
TGI [8]: > 100 µM
TGI [9]: > 100 µM
TGI [10]: > 100 µM

CC(=O)NNc1nc(C)c(C(=O)/C=C/c2ccc(Cl)cc2)s1
TGI [1]: > 100 µM
TGI [2]: > 100 µM
TGI [3]: > 100 µM
TGI [4]: > 100 µM
TGI [5]: > 100 µM
TGI [7]: > 100 µM
TGI [8]: > 100 µM

COc1ccc2oc(-c3ccc(OC)c(OC)c3OC)cc(=O)c2c1
TGI [1]: > 100 µM
TGI [2]: 93.8 µM
TGI [3]: > 100 µM
TGI [4]: > 100 µM
TGI [6]: 81.1 µM
TGI [7]: > 100 µM

O=S(=O)(N=NC=C1c2ccccc2N(O)c2ccccc21)c1ccc(Cl)cc1
TGI [1]: > 100 µM
TGI [3]: > 100 µM
TGI [4]: > 100 µM
TGI [5]: > 100 µM
TGI [6]: > 100 µM
TGI [7]: > 100 µM
TGI [8]: > 100 µM

COC1CCC(OC)C(C2(C3CC(OC)CCC3OC)OC(=O)c3ccccc32)C1 (centres undefined)
TGI [1]: > 100 µM
TGI [2]: > 100 µM
TGI [3]: > 100 µM
TGI [4]: > 100 µM
TGI [5]: > 100 µM
TGI [6]: > 100 µM
TGI [8]: > 100 µM

COC(=O)/C(C#N)=C(\N)C(Cl)(Cl)Cl
TGI [2]: 3.77 µM
TGI [3]: 87.2 µM
TGI [4]: 4.51 µM
TGI [5]: 31.7 µM
TGI [7]: 2.67 µM
TGI [8]: 86.6 µM

COC(=O)C1CC(OC(C)=O)C=C2C(=O)CCC21 (centres undefined)
TGI [2]: 29.8 µM
TGI [3]: 79.9 µM
TGI [4]: 29.3 µM
TGI [5]: 80.9 µM
TGI [6]: > 100 µM
TGI [7]: 34.4 µM
TGI [8]: 80.3 µM

CCOC(=O)C12C(C(=O)OC)=C(C)N(NC(=O)Nc3ccccc3)C1(N)N(NC(=O)Nc1ccccc1)C(C)=C2C(=O)OC (centres undefined)
TGI [1]: > 100 µM
TGI [2]: 74.3 µM
TGI [3]: 37.5 µM
TGI [4]: > 73.5 µM
TGI [5]: 35.8 µM
TGI [6]: > 100 µM
TGI [7]: 59 µM
TGI [8]: > 100 µM

CN(C)CCCC1(c2ccc(F)cc2)OCc2cc(-c3cc4ccccc4s3)ccc21 (centres undefined)
GI50 [1]: 1.76 µM
TGI [1]: 3.34 µM
GI50 [2]: 1.42 µM
TGI [2]: 2.86 µM
GI50 [3]: 1.8 µM
TGI [3]: 3.46 µM
GI50 [4]: 1.68 µM
TGI [4]: 3.3 µM
GI50 [5]: 1.63 µM
TGI [5]: 3.02 µM
GI50 [8]: 1.24 µM
TGI [8]: 2.49 µM
GI50 [9]: 1.75 µM
TGI [9]: 3.47 µM
GI50 [10]: 1.8 µM
TGI [10]: 3.96 µM

COc1cc(NS(C)(=O)=O)ccc1NCc1c2ccccc2nc2ccccc12
TGI [1]: > 100 µM
TGI [2]: 57.5 µM
TGI [3]: > 100 µM
TGI [4]: > 100 µM
TGI [5]: > 100 µM
TGI [6]: > 100 µM
TGI [7]: 33.5 µM
TGI [8]: > 100 µM

COC1=CC(c2ccc[nH]2)=N/C1=C\c1[nH]c(C)c(CC(=O)OCc2ccccc2)c1C
GI50 [1]: 0.399 µM
TGI [1]: 2.98 µM
GI50 [2]: 0.43 µM
TGI [2]: 2.07 µM
GI50 [3]: 0.198 µM
TGI [3]: 0.51 µM
GI50 [5]: 0.319 µM
TGI [5]: 1.73 µM
GI50 [6]: 0.33 µM
TGI [6]: 2.31 µM
GI50 [7]: 0.184 µM
TGI [7]: 1.94 µM
GI50 [8]: 0.193 µM
TGI [8]: 0.398 µM
GI50 [9]: 0.397 µM
TGI [9]: 2.85 µM
GI50 [10]: 0.362 µM
TGI [10]: 2.26 µM

— PubChem BioAssay (NCI)
